In patent US20240228504A1, “SUBSTITUTED TRICYCLIC AMIDES, ANALOGUES THEREOF, AND METHODS USING SAME” (Arbutus Biopharma Corporation, priority 2020, published 2024) one finds EC50 data, which are given here for 28 compounds.

Molecules are shown by their SMILES.

The test system of this test is HBV rcDNA in HepDE19 cells. Description: HepDE19 assay with bDNA quantitation of HBV rcDNA. In kind it is cell-based, hepatitis B virus. The note with it: Hepatitis B virus, HepDE19, HepDE19 assay, inhibition of rcDNA formation, bDNA quantitation; read-out: DE-19bDNA EC50.
With `CN(C(=O)c1cc2cc(Br)ncc2[nH]1)[C@@H]1COCc2[nH]c(=O)c3cc(F)c(F)cc3c21` [Compound 213, (S)-5-Bromo-N-(8,9-difluoro-6-oxo-1,4,5,6-tetrahydro-2H-pyrano[3,4-c]isoquinolin-1-yl)-N-methyl-1H-pyrrolo[2,3-c]pyridine-2-carboxamide], the EC50 turned out to be 80 nM. Under `CN(C(=O)c1cc2cc(C(F)(F)F)cnc2[nH]1)[C@@H]1COCc2[nH]c(=O)c3cc(F)c(F)cc3c21` [Compound 214, (S)-N-(8,9-difluoro-6-oxo-1,4,5,6-tetrahydro-2H-pyrano[3,4-c]isoquinolin-1-yl)-N-methyl-5-(trifluoromethyl)-1H-pyrrolo[2,3-b]pyridine-2-carboxamide] stands 1000 nM. As for `CN(C(=O)c1c[nH]c(=O)c(Cl)c1)[C@@H]1COCc2[nH]c(=O)c3cc(F)c(F)cc3c21` [Compound 215, (S)-5-Chloro-N-(8,9-difluoro-6-oxo-1,4,5,6-tetrahydro-2H-pyrano[3,4-c]isoquinolin-1-yl)-N-methyl-6-oxo-1,6-dihydropyridine-3-carboxamide], the figure is 20100 nM; as for `CN(C(=O)c1ccc(Br)c(=O)[nH]1)[C@@H]1COCc2[nH]c(=O)c3cc(F)c(F)cc3c21` [Compound 216, (S)-5-Bromo-N-(8,9-difluoro-6-oxo-1,4,5,6-tetrahydro-2H-pyrano[3,4-c]isoquinolin-1-yl)-N-methyl-6-oxo-1,6-dihydropyridine-2-carboxamide], 7300 nM. Under `CN(C(=O)c1cc2nc(C(F)(F)F)ccc2[nH]1)[C@@H]1COCc2[nH]c(=O)c3cc(F)c(F)cc3c21` [Compound 219, (S)-N-(8,9-difluoro-6-oxo-1,4,5,6-tetrahydro-2H-pyrano[3,4-c]isoquinolin-1-yl)-N-methyl-5-(trifluoromethyl)-1H-pyrrolo[3,2-b]pyridine-2-carboxamide] stands 1440 nM. For the compound `CN(C(=O)c1cc2ccc(F)cn2c1)[C@@H]1COCc2[nH]c(=O)c3cc(F)c(F)cc3c21` [Compound 224, (S)-N-(8,9-Difluoro-6-oxo-1,4,5,6-tetrahydro-2H-pyrano[3,4-c]isoquinolin-1-yl)-6-fluoro-N-methylindolizine-2-carboxamide], the EC50 was 10 nM. Under `CN(C(=O)c1cnc(C(F)(F)F)[nH]1)[C@@H]1COCc2[nH]c(=O)c3cc(F)c(F)cc3c21` [Compound 225, (S)-N-(8,9-Difluoro-6-oxo-1,4,5,6-tetrahydro-2H-pyrano[3,4-c]isoquinolin-1-yl)-N-methyl-2-(trifluoromethyl)-1H-imidazole-5-carboxamide] stands 13000 nM; under `CN(C(=O)c1c[nH]c(=O)c(F)c1)[C@@H]1COCc2[nH]c(=O)c3cc(F)c(F)cc3c21` [Compound 226, (S)-N-(8,9-Difluoro-6-oxo-1,4,5,6-tetrahydro-2H-pyrano[3,4-c]isoquinolin-1-yl)-5-fluoro-N-methyl-6-oxo-1,6-dihydropyridine-3-carboxamide], 12500 nM. `CN(C(=O)c1ccc2cccn2c1)[C@@H]1COCc2[nH]c(=O)c3cc(F)c(F)cc3c21` [Compound 227, (S)-N-(8,9-Difluoro-6-oxo-1,4,5,6-tetrahydro-2H-pyrano[3,4-c]isoquinolin-1-yl)-N-methylindolizine-6-carboxamide]: the EC50 turned out to be 20 nM.

For the compound `CN(C(=O)c1ccn2cccc2c1)[C@@H]1COCc2[nH]c(=O)c3cc(F)c(F)cc3c21` [Compound 228, (S)-N-(8,9-Difluoro-6-oxo-1,4,5,6-tetrahydro-2H-pyrano[3,4-c]isoquinolin-1-yl)-N-methylindolizine-7-carboxamide], the EC50 is 60 nM. With `CN(C(=O)C(O)(c1ccccc1)c1ccccc1)[C@@H]1COCc2[nH]c(=O)c3cc(F)c(F)cc3c21` [Compound 229, (S)-N-(8,9-Difluoro-6-oxo-1,4,5,6-tetrahydro-2H-pyrano[3,4-c]isoquinolin-1-yl)-2-hydroxy-N-methyl-2,2-diphenylacetamide], the EC50 came out at 8400 nM. As for `CN(C(=O)c1cc2c(C(F)F)cc(F)cc2[nH]1)[C@@H]1COCc2[nH]c(=O)c3cc(F)c(F)cc3c21` [Compound 230, (S)-N-(8,9-Difluoro-6-oxo-1,4,5,6-tetrahydro-2H-pyrano[3,4-c]isoquinolin-1-yl)-4-(difluoromethyl)-6-fluoro-N-methyl-1H-indole-2-carboxamide], the figure is 10 nM. Under `CN(C(=O)c1cc2cc(F)ccn2c1)[C@@H]1COCc2[nH]c(=O)c3cc(F)c(F)cc3c21` [Compound 231, (S)-N-(8,9-Difluoro-6-oxo-1,4,5,6-tetrahydro-2H-pyrano[3,4-c]isoquinolin-1-yl)-7-fluoro-N-methylindolizine-2-carboxamide] stands 10 nM; under `CN(C(=O)c1cc2nc(F)ccc2[nH]1)[C@@H]1COCc2[nH]c(=O)c3cc(F)c(F)cc3c21` [Compound 232, (S)-N-(8,9-Difluoro-6-oxo-1,4,5,6-tetrahydro-2H-pyrano[3,4-c]isoquinolin-1-yl)-5-fluoro-N-methyl-1H-pyrrolo[3,2-b]pyridine-2-carboxamide], 70 nM; under `CN(C(=O)C1Cc2cc(F)c(F)cc2C1)[C@@H]1COCc2[nH]c(=O)c3cc(F)c(F)cc3c21` [Compound 233, (S)-N-(8,9-Difluoro-6-oxo-1,4,5,6-tetrahydro-2H-pyrano[3,4-c]isoquinolin-1-yl)-5,6-difluoro-N-methyl-2,3-dihydro-1H-indene-2-carboxamide], 40 nM. On to `CN(C(=O)c1cnn(-c2ccc(F)cc2)c1)[C@@H]1COCc2[nH]c(=O)c3cc(F)c(F)cc3c21` [Compound 234, (S)-N-(8,9-Difluoro-6-oxo-1,4,5,6-tetrahydro-2H-pyrano[3,4-c]isoquinolin-1-yl)-1-(4-fluorophenyl)-N-methyl-1H-pyrazole-4-carboxamide], for which the EC50 was determined as 10500 nM. As for `CN(C(=O)c1cc(-c2ccc(F)cc2)no1)[C@@H]1COCc2[nH]c(=O)c3cc(F)c(F)cc3c21` [Compound 236, (S)-N-(8,9-Difluoro-6-oxo-1,4,5,6-tetrahydro-2H-pyrano[3,4-c]isoquinolin-1-yl)-3-(4-fluorophenyl)-N-methylisoxazole-5-carboxamide], the figure is 15100 nM.

Consider `CN(C(=O)c1ccc(Oc2cccc(F)c2)cc1)[C@@H]1COCc2[nH]c(=O)c3cc(F)c(F)cc3c21` [Compound 237, (S)-N-(8,9-Difluoro-6-oxo-1,4,5,6-tetrahydro-2H-pyrano[3,4-c]isoquinolin-1-yl)-4-(3-fluorophenoxy)-N-methylbenzamide], for which the half-maximal effective concentration (EC50) was determined as 6900 nM. On to `CN(C(=O)c1cc2cc(F)c(F)cc2[nH]1)[C@@H]1COCc2c1c1cc(F)c(F)cc1c(=O)n2C` [Compound 240, (S)-N-(8,9-Difluoro-5-methyl-6-oxo-1,4,5,6-tetrahydro-2H-pyrano[3,4-c]isoquinolin-1-yl)-5,6-difluoro-N-methyl-1H-indole-2-carboxamide], for which the EC50 came to 10 nM. Under `COc1nc2c(c3cc(F)c(F)cc13)[C@H](N(C)C(=O)c1cc3cc(F)c(F)cc3[nH]1)COC2` [Compound 241, (S)-N-(8,9-Difluoro-6-methoxy-1,4-dihydro-2H-pyrano[3,4-c]isoquinolin-1-yl)-5,6-difluoro-N-methyl-1H-indole-2-carboxamide] stands 30 nM. As for `CN(C(=O)c1cc2n(c1)CCCC2)[C@@H]1COCc2[nH]c(=O)c3cc(F)c(F)cc3c21` [Compound 242, (S)-N-(8,9-Difluoro-6-oxo-1,4,5,6-tetrahydro-2H-pyrano[3,4-c]isoquinolin-1-yl)-N-methyl-5,6,7,8-tetrahydroindolizine-2-carboxamide], the figure is 110 nM. In the case of `CN(C(=O)c1ccc(Br)c(F)c1F)[C@@H]1COCc2[nH]c(=O)c3cc(F)c(F)cc3c21` [Compound 244, (S)-4-Bromo-N-(8,9-difluoro-6-oxo-1,4,5,6-tetrahydro-2H-pyrano[3,4-c]isoquinolin-1-yl)-2,3-difluoro-N-methylbenzamide], the EC50 came out at 80 nM.

For `CN(C(=O)c1cc(F)c(Br)cc1F)[C@@H]1COCc2[nH]c(=O)c3cc(F)c(F)cc3c21` [Compound 245, (S)-4-Bromo-N-(8,9-difluoro-6-oxo-1,4,5,6-tetrahydro-2H-pyrano[3,4-c]isoquinolin-1-yl)-2,5-difluoro-N-methylbenzamide], the EC50 was 170 nM. Under `CN(C(=O)c1c(F)cc(Br)cc1F)[C@@H]1COCc2[nH]c(=O)c3cc(F)c(F)cc3c21` [Compound 246, (S)-4-Bromo-N-(8,9-difluoro-6-oxo-1,4,5,6-tetrahydro-2H-pyrano[3,4-c]isoquinolin-1-yl)-2,6-difluoro-N-methylbenzamide] stands 1960 nM; under `CN(C(=O)c1ccc(C(F)(F)F)c(=O)[nH]1)[C@@H]1COCc2[nH]c(=O)c3cc(F)c(F)cc3c21` [Compound 247, (S)-N-(8,9-Difluoro-6-oxo-1,4,5,6-tetrahydro-2H-pyrano[3,4-c]isoquinolin-1-yl)-N-methyl-6-oxo-5-(trifluoromethyl)-1,6-dihydropyridine-2-carboxamide], 3870 nM; under `CN(C(=O)c1ccc2ccccn12)[C@@H]1COCc2[nH]c(=O)c3cc(F)c(F)cc3c21` [Compound 248, (S)-N-(8,9-Difluoro-6-oxo-1,4,5,6-tetrahydro-2H-pyrano[3,4-c]isoquinolin-1-yl)-N-methylindolizine-3-carboxamide], 5380 nM. In the case of `CN(C(=O)c1ccc(-c2ccc(F)cc2)cc1)[C@@H]1COCc2[nH]c(=O)c3cc(F)c(F)cc3c21` [Compound 250, (S)-N-(8,9-Difluoro-6-oxo-1,4,5,6-tetrahydro-2H-pyrano[3,4-c]isoquinolin-1-yl)-4′-fluoro-N-methyl-[1,1′-biphenyl]-4-carboxamide], the EC50 was determined as 8100 nM. As for `CN(C(=O)c1cc2cc(C(F)(F)F)ncc2[nH]1)[C@@H]1COCc2[nH]c(=O)c3cc(F)c(F)cc3c21` [Compound 251, (S)-N-(8,9-difluoro-6-oxo-1,4,5,6-tetrahydro-2H-pyrano[3,4-c]isoquinolin-1-yl)-N-methyl-5-(trifluoromethyl)-1H-pyrrolo[2,3-c]pyridine-2-carboxamide], the figure is 230 nM.
